# Data taken from patent EP0419292A1, “Human tryptase-like protein” (TAISHO PHARMACEUTICAL CO. LTD, priority 1989, dated 1991).
# Entries after “also recorded” stand apart in the source; their conditions may differ. Starred links: 1 amine or outer side, 2 acyl side, 3 side chain; linkers in the order of their positions; H or OH if unused. Non-standard residues stand in square brackets, D forms with d. Residues, ends and D or L forms follow the SMILES beside them. *: point of attachment. Sta = CC(C)C[C@H](N)[C@@H](O)CC(=O)O; Glutaryl = O=C(CCCC(=O)[*:2])[*:1]; AMC = Cc1cc(=O)oc2cc(N*)ccc12; Suc = O=C(CCC(=O)[*:2])[*:1]; Isovaleryl = CC(C)CC(=O)*; Boc = CC(C)(C)OC(=O)*
# Key:
# [1] = system: human tryptase-like protein; assay: Effects of inhibitors on the trypsin-like activity; assay type: biochemical; conditions: 10 µM inhibitor; for Inhibition (%) / Activity: substrate Boc-Gln-Gly-Arg-MCA; for Activity: control 843.1
# Protocol: Enzyme activity of the human tryptase-like protein during the course of purification or after purification was measured as follows. The enzyme sample was added to 0.1 M Tris-HCl buffer (pH 7.8) containing 25 mM calcium chloride and 100 µM of fluorogenic substrate. The fluorescence was measured with excitation and emmision wavelength of 380 nm and 460 nm, respectively.
# Effects of inhibitors on the trypsin-like activity of the human tryptase-like protein was examined using Boc-Gln-Gly-Arg-MCA as substrate.
# [2] = system: human tryptase-like protein; assay: Enzyme activity with fluorogenic substrates (substrate specificity); assay type: biochemical; conditions: for Activity: Substrate 100 µM, 0.1 M Tris-HCl pH 7.8, 25 mM calcium chloride; for %: activity relative to Boc-Gln-Gly-Arg-MCA (100), substrate 100 µM; for hydrolysis by human tryptase-like protein: trypsin-like or chymotrypsin-like activity
# Protocol: Enzyme activity of the human tryptase-like protein during the course of purification or after purification was measured as follows. The enzyme sample was added to 0.1 M Tris-HCl buffer (pH 7.8) containing 25 mM calcium chloride and 100 µM of fluorogenic substrate. The fluorescence was measured with excitation and emmision wavelength of 380 nm and 460 nm, respectively. Effects of inhibitors on the enzyme activity were examined by adding 10 µM each of inhibitor to the reaction solution described above.
molecule,measurement,setting,value
CC(C)C[C@H](NC(=O)N[C@H](C(=O)N[C@@H](CCC(N)=O)C(=O)N[C@@H](C)C=O)[C@@H]1CCNC(=N)N1)C(=O)O [Elastatinal],Inhibition (%),[1],16%
same,Activity,[1],710.0 µU/ml
Cc1cc(=O)oc2cc(NC(=O)[C@H](CCCNC(=N)N)NC(=O)CNC(=O)[C@H](CCC(N)=O)NC(=O)OC(C)(C)C)ccc12 [Boc-Gln-Gly-Arg-MCA] (Boc-Gln-Gly-Arg-{AMC}),Activity,[2],754.4 µU/ml
same,%,[2],100%
same,hydrolysis by human tryptase-like protein,[2],cleaves; also recorded: hydrolyzed most rapidly
N=C(N)c1ccccc1 [Benzamidine],Inhibition (%),[1],3%
same,Activity,[1],817.8 µU/ml
CC(C)CCNC(=O)[C@H](CC(C)C)NC(=O)[C@H]1O[C@@H]1C(=O)O [E-64c],Inhibition (%),[1],11%
same,Activity,[1],754.4 µU/ml
CC(C)C[C@H](NC(=O)[C@@H](NC(=O)N[C@@H](Cc1ccccc1)C(=O)O)[C@@H]1CCN=C(N)N1)C(=O)N[C@H](C=O)Cc1ccccc1 [Chymostatin],inhibition of trypsin-like activity,[1],inhibited
same,Inhibition (%),[1],47%
same,Activity,[1],443.8 µU/ml
Cc1cc(=O)oc2cc(NC(=O)[C@H](Cc3ccc(O)cc3)NC(=O)[C@@H](NC(=O)[C@H](CC(C)C)NC(=O)[C@H](CC(C)C)NC(=O)CCC(=O)O)C(C)C)ccc12 [Suc-Leu-Leu-Val-Tyr-MCA] (Suc-LLVY-{AMC}),Activity,[2],244.1 µU/ml
same,%,[2],32%
same,hydrolysis by human tryptase-like protein,[2],cleaves; also recorded: hydrolized most rapidly
Cc1cc(=O)oc2cc(NC(=O)[C@H](CCCNC(=N)N)NC(=O)[C@@H]3CCCN3C(=O)[C@@H](NC(=O)OC(C)(C)C)C(C)C)ccc12 [Boc-Val-Pro-Arg-MCA] (Boc-Val-Pro-Arg-{AMC}),Activity,[2],66.6 µU/ml
same,%,[2],9%
"O=S(=O)(F)Cc1ccccc1 [PMSF, phenylmethylsulfonyl fluoride]",Inhibition (%),[1],13%
same,Activity,[1],732.2 µU/ml
Cc1cc(=O)oc2cc(NC(=O)[C@H](CCCNC(=N)N)NC(=O)[C@@H](NC(=O)[C@H](CC(C)C)NC(=O)OC(C)(C)C)[C@@H](C)O)ccc12 [Boc-Leu-Thr-Arg-MCA] (Boc-Leu-Thr-Arg-{AMC}),Activity,[2],110.9 µU/ml
same,%,[2],15%
Cc1cc(=O)oc2cc(NC(=O)[C@H](CCCNC(=N)N)NC(=O)CNC(=O)CCCC(=O)O)ccc12 [Glt-Gly-Arg-MCA] (Glutaryl-Gly-Arg-{AMC}),Activity,[2],332.8 µU/ml
same,%,[2],44%
CC(C)C[C@H](NC(=O)[C@@H](O)[C@H](N)Cc1ccccc1)C(=O)O [Bestatin],Inhibition (%),[1],0%
same,Activity,[1],843.0 µU/ml
Cc1cc(=O)oc2cc(NC(=O)[C@H](Cc3ccccc3)NC(=O)[C@@H]3CCCN3C(=O)[C@H](C)NC(=O)[C@H](C)NC(=O)CCC(=O)O)ccc12 [Suc-Ala-Ala-Pro-Phe-MCA] (Suc-AAPF-{AMC}),Activity,[2],110.9 µU/ml
same,%,[2],15%
Cc1cc(=O)oc2cc(NC(=O)[C@H](CCCNC(=N)N)NC(=O)[C@H](CCCNC(=N)N)NC(=O)[C@H](CCC(N)=O)NC(=O)OC(C)(C)C)ccc12 [Boc-Gln-Arg-Arg-MCA] (Boc-Gln-Arg-Arg-{AMC}),Activity,[2],177.5 µU/ml
same,%,[2],24%
Cc1cc(=O)oc2cc(NC(=O)[C@H](CCCNC(=N)N)NC(=O)[C@H](C)NC(=O)[C@H](CCC(N)=O)NC(=O)OC(C)(C)C)ccc12 [Boc-Gln-Ala-Arg-MCA] (Boc-Gln-Ala-Arg-{AMC}),Activity,[2],532.4 µU/ml
same,%,[2],71%
Cc1cc(=O)oc2cc(NC(=O)[C@H](CCCNC(=N)N)NC(=O)[C@H](CCCNC(=N)N)NC(=O)CNC(=O)OC(C)(C)C)ccc12 [Boc-Gly-Arg-Arg-MCA],Activity,[2],44.4 µU/ml
same,%,[2],6%
Cc1cc(=O)oc2cc(NC(=O)[C@H](CCCNC(=N)N)NC(=O)[C@H](CCCNC(=N)N)NC(=O)[C@H](CC(C)C)NC(=O)OC(C)(C)C)ccc12 [Boc-Leu-Arg-Arg-MCA] (Boc-Leu-Arg-Arg-{AMC}),Activity,[2],110.9 µU/ml
same,%,[2],15%
N-tosyl-L-phenylalanine chloromethyl ketone [TPCK],Inhibition (%),[1],16%
same,Activity,[1],708.2 µU/ml
CC(C)C[C@@H](N)[C@H](O)C(=O)N[C@H](C(=O)N[C@H](C(=O)N[C@@H](CC(=O)O)C(=O)O)C(C)C)C(C)C [Amastatin],Inhibition (%),[1],9%
same,Activity,[1],767.2 µU/ml
CC[C@H](C)[C@H](NC(=O)OC(C)(C)C)C(=O)N[C@@H](CCC(=O)O)C(=O)NCC(=O)N[C@@H](CCCNC(=N)N)C(=O)Nc1ccc2c(C)cc(=O)oc2c1 [Boc-Ile-Glu-Gly-Arg-MCA] (Boc-IEGR-{AMC}),Activity,[2],355.0 µU/ml
same,%,[2],47%
Cc1cc(=O)oc2cc(NC(=O)[C@H](CCCCN)NC(=O)[C@H](CCCCN)NC(=O)[C@H](CCC(=O)O)NC(=O)OC(C)(C)C)ccc12 [Boc-Glu-Lys-Lys-MCA] (Boc-Glu-Lys-Lys-{AMC}),Activity,[2],221.9 µU/ml
same,%,[2],29%
CC(C)C[C@H](NP(=O)(O)O[C@@H]1O[C@@H](C)[C@H](O)[C@@H](O)[C@H]1O)C(=O)N[C@@H](Cc1c[nH]c2ccccc12)C(=O)O [Phosphoramidone],Inhibition (%),[1],3%
same,Activity,[1],820.9 µU/ml
Cc1cc(=O)oc2cc(NC(=O)[C@H](CCCNC(=N)N)NC(=O)[C@@H]3CCCN3C(=O)CNC(=O)[C@H](C)NC(=O)OC(C)(C)C)ccc12 [Boc-Ala-Gly-Pro-Arg-MCA] (Boc-AGPR-{AMC}),Activity,[2],199.7 µU/ml
same,%,[2],26%
Cc1cc(=O)oc2cc(NC(=O)[C@H](CCCNC(=N)N)NC(=O)[C@H](Cc3ccccc3)NC(=O)[C@@H]3CCCN3)ccc12 [Pro-Phe-Arg-MCA] (H-Pro-Phe-Arg-{AMC}),Activity,[2],155.3 µU/ml
same,%,[2],21%
Cc1cc(=O)oc2cc(NC(=O)[C@H](CCCNC(=N)N)NC(=O)[C@H](CO)NC(=O)[C@H](Cc3ccccc3)NC(=O)OC(C)(C)C)ccc12 [Boc-Phe-Ser-Arg-MCA] (Boc-Phe-Ser-Arg-{AMC}),Activity,[2],177.5 µU/ml
same,%,[2],24%
CC(C)CC(=O)N[C@H](C(=O)N[C@H](C(=O)N[C@@H](CC(C)C)[C@@H](O)CC(=O)N[C@@H](C)C(=O)N[C@@H](CC(C)C)[C@@H](O)CC(=O)O)C(C)C)C(C)C [Pepstatin] (Isovaleryl-VV[Sta]A[Sta]-OH),Inhibition (%),[1],0%
same,Activity,[1],845.0 µU/ml
"Cc1ccc(S(=O)(=O)N[C@@H](CCCCN)C(=O)CCl)cc1 [TLCK, Nα-p-tosyl-L-lysine chloromethyl ketone]",Inhibition (%),[1],18%
same,Activity,[1],691.3 µU/ml
CC(=O)N[C@@H](CC(C)C)C(=O)N[C@@H](CC(C)C)C(=O)N[C@H](C=O)CCCNC(=N)N [Leupeptin],inhibition of trypsin-like activity,[1],inhibited; also recorded: strongly inhibited
same,Inhibition (%),[1],87%
same,Activity,[1],110.9 µU/ml
Cc1cc(=O)oc2cc(NC(=O)[C@H](CCCNC(=N)N)NC(=O)[C@H](CCCCN)NC(=O)CNC(=O)OC(C)(C)C)ccc12 [Boc-Gly-Lys-Arg-MCA] (Boc-Gly-Lys-Arg-{AMC}),Activity,[2],177.5 µU/ml
same,%,[2],24%
